Experimental data taken from patent publication US20240294914A1, “COMPOSITIONS AND METHODS FOR TREATING HEPATITIS B VIRUS INFECTION” (priority 2021, published 2024).

How the values were obtained:
[1] = test system: HBV cccDNA; assay: cccDNA editing in HBV-infected HepG2-NTCP cells (NGS on enriched cccDNA); type: cell-based, Hepatitis B virus; conditions: for improvement in base editing efficiency by lamivudine pretreatment: HepG2-NTCP, 3-day pretreatment (8-day total), BE4 mRNA + gRNAs 37 and 40
From the text: Experiments were completed using guide RNA's listed in Table 1 to identify combinations of guide RNA's effective in treating HBV-infected cells. HepG2-NTCP cells were transfected with mRNA encoding BE4 and a guide RNA(s) selected from gRNA12, gRNA37, gRNA19, gRNA190, and gRNA40. HepG2-NTCP cells are described in Sun, et al. “NTCP-Reconstituted In Vitro HBV Infection System,” Methods Mol. Biol. 1540:1-14 (2017), DOI: 10.1007/978-1-4939-6700-1_1, the disclosure of which is incorporated herein by reference in its entirety for all purposes. Cells were infected at day 0 with HBV and then transfected with the mRNA and gRNA(s) at day 4, see FIG. 6. Measurements of HBsAg, HBeAg, total HBV DNA, and 3.5 kb viral DNA were taken at day 14, see FIG. 6. The guide RNA, gRNA37, targeted HBsAg and gRNA40 targeted the HBV core protein, see FIG. 7. The use of gRNA37 was associated with a reduction in HBsAg levels and the use of gRNA40 was associated with a reduction in HBeAg levels, see FIG. 8. Also, each of gRNA37 and gRNA40 was associated with a lowering of total HBV DNA and 3.5 kb RNA levels.
(§1) Having identified gRNA37 and gRNA40 as effective gRNAs, the antiviral efficacy of a base editor system containing BE4, gRNA37 and gRNA40 (i.e., multiplexing gRNAs) was evaluated, FIGS. 8-10. It was determined that the base editor system multiplexed with the two gRNAs was associated with a reduction of HBV viral parameters in HepG2-NTCP cells, see FIG. 9. […] For the evaluation of editing of cccDNA, the cccDNA was enriched via Hirt extraction and ExoI/ExoIII nuclease treatment to remove rcDNA (relaxed circular DNA). Throughout the Examples provided herein, editing of cccDNA was evaluated using next generation sequencing completed using cccDNA enriched in this way.
HepG2-NTCP cells were infected with HBV at day 0, at day 4 an 8-day treatment with lamivudine commenced (which included a 3-day pretreatment period within the 8-day total), at day 7 cells were transfected with mRNA encoding BE4 and gRNAs 37 and 40, and measurements were taken at day 15. […]

[2] = test system: Hepatitis B virus; assay: Antiviral efficacy in HBV-infected primary human hepatocytes (HBV-PHH): HBsAg, HBeAg, HBV DNA, 3.5 kb RNA, rebound; type: cell-based; conditions: PHH co-culture, transfection at days 4 and 11; lamivudine 8 days then discontinued
[3] = test system: HBV cccDNA; assay: Base editing of HBV cccDNA in primary human hepatocytes (HBV-PHH); type: cell-based, Hepatitis B virus
From the text: (§2) Base editor systems comparing guide RNAs evaluated in Example 1 were subsequently tested for anti-viral and editing efficacy using the Hepatitis B virus-primary human hepatocyte (HBV-PHH) system. Cells were transfected with the guide RNAs and mRNAs encoding the base editor as described in Example 1. […] Guide RNAs ABE-133, MSPbeam94, and ABE-85 were associated with a 70-80% reduction of HBV DNA as compared to controls. The guide RNAs PolyA-NGC1 and PolyA-NGC2 were associated with high editing followed by 90% efficacy in reduction of HbeAg.
as §1
(§3) The design of the experiments is described schematically in FIG. 14. Primary human hepatocyte (PHH) cells were infected with HBV at day 0. At days 4 and 11, the cells were transfected with mRNA encoding BE4 and with gRNA37 and gRNA40. Measurements of HBV DNA were taken over time, and measurements of HBsAg, HBeAG, HBV total DNA, 3.5 kb RNA, and cccDNA editing were taken at day 25. The experiments were carried out using a PHH co-culture system available from PhoenixBio. The PHH co-culture system maintained hepatocyte differentiation and metabolic activity for over 30 days. The HBV infection in the cells was persistent and a cccDNA level was maintained.
(§4) The design of the experiments is described schematically in FIG. 18. Primary human hepatocyte (PHH) cells were infected with HBV at day 0, at day 4 an 8-day. Treatment with lamivudine commenced (which included a 3-day pretreatment period within the 8-day total), and cells were transfected with mRNA encoding BE4 and the gRNAs gRNA37 and gRNA40 at days 7 and 14. HBV DNA levels were measured over time, and additional HBV markers were measured at day 21.
(§5) Primary hepatocytes (PHH) co-cultures infected with HBV were used to test antiviral efficacy of base editing systems. Primary hepatocyte co-culture (PHH) infected with HBV virus is a clinically relevant system for assessing anti-viral activity of base editing systems. The base editing reagents (mRNA encoding a base editor(s) and synthetic gRNA) were transfected via lipofection twice over the course of two weeks. The first transfection was performed about 3, 4, or 7 days after infection (days post infection (dpi)). Not being bound by theory, this 3-to-7-day period ensured that the cccDNA was completely formed at the time of the transfection. The second transfection was at about 7, 10, 11, or 14 days after infection. Extracellular parameters (e.g., HBsAg, HBeAg, and HBV DNA) were monitored over the course of the experiment (including the end of the experiment) and intracellular parameters (HBV DNA, viral RNA, and editing) were measured at the end of the experiment. Cells were lysed at the termination of the experiment (e.g., at 15, 17, 21, or 25 days).
(§6) Transfection details: RNA format, 800 ng total RNA per well in a 24 well plate (600 ng base editor-encoding mRNA+200 ng gRNA) transfected via lipofection (lipofectamin messengerMax, thermofisher Scientific) according to the vendor protocol.

[4] = test system: naturally integrated HBV genome in PLC/PRF/5; assay: Editing of naturally integrated HBV genome in PLC/PRF/5 cells; type: cell-based, Hepatitis B virus; conditions: BE4 + gRNA
From the text: This editing reduced HBsAg secretion (FIG. 34B).

[5] = test system: HBsAg; conditions: PLC/PRF/5 cells, BE4 + gRNA, 6th day post-transfection
[6] = test system: HBV-infected cells; assay: Base editors with reduced off-target activity (BE4, ppApo, rrA3F): editing and HBsAg in HBV-infected cells; type: cell-based, Hepatitis B virus; conditions: base editor in combination with gRNA37 and gRNA40
From the text: FIG. 22 provides a bar graph showing base editing at the sites targeted by gRNA37 and gRNA40. Cells were contacted with BE4, ppApo, or rrA3F in combination with gRNA37 and gRNA40.
Thus, all three base editor systems had antiviral activity. The negative control (HBV) was untreated cells and the control (contr) was gRNA targeting the PCSK9 gene.
It may be advantageous to use base editors that have reduced off-target activity and lower non-specific effects (e.g., as compared to BE4) without compromising editing efficiencies. Thus, experiments were undertaken to evaluate the antiviral efficacy of base editor systems containing ppApo or rrA3F, which are described in Yu, et al. “Cytoxine base editors with minimized unguided DNA and RNA off-target events and high on-target activity,” Nature Communications, 11:2052 (2020), DOI: 10.1038/s41467-020-15887-5, the disclosure of which is incorporated herein by reference in its entirety for all purposes.

[7] = test system: Hepatitis B virus; assay: HBV minicircle (HBVcircle) mouse model: serum HBsAg, HBeAg, HBV DNA after LNP injection; type: in vivo
From the text: Having established the efficacy of these base editing reagents in vitro, experiments were then undertaken to evaluate these same base editing reagents for antiviral efficacy in vivo using the HBV minicircle mouse model. […] After establishing HBV viral replication, hepatic delivery of the base editing reagents was achieved via systemic administration of lipid nanoparticles (LNPs) formulated with the following base editing reagents: CBE mRNA and HBV-targeting gRNAs (e.g., gRNA37 and gRNA40 (see Table 1)). The mice were administered a combination of base editors, where the combination was either gRNA37 and gRNA40 or gRNA37-HM and gRNA40-HM. The guides gRNA37-HM and gRNA40-HM each included heavily modified(HM) scafolds (see Table 1).
Table 23 below provides a summary of the experimental design used to evaluate the base editing reagents in vivo. The mice contained an HBVcircle polynucleotide that enabled HBV replication in vivo. See, for example Yan et al., J. Hepatol 2017 66:1149-1157 for a description of an exemplary mouse model. The mice were administered lipid nanoparticles (BL4 LNP) containing mRNA encoding BE4 (a cytidine base editor) and either the guide RNAs gRNA37 and gRNA40 or the guide RNAs gRNA37-HM and gRNA-40-HM containing a scaffold with heavy modifications (HM). […] HBsAg, HbeAg, and HBV DNA levels in serum were measured weekly (FIGS. 24A-24C and 25A-25C). […]

[8] = test system: HBV genome in HEK293T cells transduced with a lentiviral vector; assay: Base editing efficiency in Hek293-lentiHBV system (PCR amplicons sequenced on MiSeq); type: cell-based, Hepatitis B virus; conditions: base editor Abe7.10
[9] = test system: Hepatitis B virus; assay: Antiviral efficacy in HBV-infected primary human hepatocytes (HBV-PHH): HBsAg, HBeAg, HBV DNA, 3.5 kb RNA, rebound; type: cell-based; conditions: HBV-PHH system, guide RNA + mRNA encoding base editor
From the text: as §2
The HBV-PHH system for studying the Hepatitis B virus is described, for example, by Winer, et al., “Long-term hepatitis B infection in a scalable hepatic co-culture system,” Nat. Commun. 8:125 (2017) and by Zhou, et al. “Long-term maintenance of human fetal hepatocytes and prolonged susceptibility to HBV infection by co-culture with non-parenchymal cells,” J. Virol Methods, 195:185-93 (2014); and is provided commercially by ImQuest BioSciences (imquestbio.com/programs/virology/hbv/)).
as §3, §4, §5, §6

Nc1ccn([C@@H]2CS[C@H](CO)O2)c(=O)n1 [lamivudine, 2′,3′-dideoxy-3′-thiacytidine 4-Amino-1-[(2R,5S)-2-(hydroxymethyl)-1,3-oxathiolan-5-yl]-1,2-dihydropyrimidin-2-one]
improvement in base editing efficiency by lamivudine pretreatment [1]: about 20% | improvement in base editing efficiency by lamivudine pretreatment ([1]; listed as Lamivudine): 20% | functional editing by NGS on cccDNA enriched samples in the presence of 3TC ([1]; gRNA B+gRNA H with BE4): Higher editing efficiency | HBV rebound (extracellular HBV DNA, qPCR in supernatant) [2]: rebounded | editing in primary hepatocytes with lamivudine pretreatment ([3]; PHH, BE4 + gRNA37 + gRNA40): improved editing

MSPbeam37-PLC: guide RNA with spacer sequence SEQ ID NO. 10834, single nucleobase change relative to MSPbeam37 (guide GAAAGCCCAAGAUGAUGGGA; guide RNA scaffold, chemistry not fully specified)
editing of the naturally integrated HBV genome [4]: edited | extracellular HBsAg (secretion) [5]: reduced

BE4: cytidine base editor polypeptide, SEQ ID NO: 10832, delivered as mRNA
HBsAg levels [6]: reductions | editing efficiencies at the sites targeted by gRNA37 and gRNA40 [6]: comparable editing efficiencies

C=C1[C@H](CO)[C@@H](O)C[C@@H]1n1cnc2c(=O)[nH]c(N)nc21 [Entecavir]
HBV rebound (serum HBV DNA) ([7]; Entecavir 0.03 mg/kg orally for two weeks then discontinued, LNP 2 mg/kg): rebounds | reduction in serum levels of HBV DNA at day 21 ([7]; Entecavir orally daily days 1-14, base editing reagents day 1 or days 1 and 14): approximately 2 log

B1: ABE-41: guide RNA SEQ ID NO: 5513 (nucleic acid)
guide: AGAAGATGAGGCATAGCAGCGTTTTAGAGCTAGAAATAGCAAGTTAAAATAAGGCTAGTCCGTTATCAACTTGAAAAAGTGGCACCGAGTCGGTGCTTTT
modifications: chemistry not fully specified
% Editing average [8]: 58% | HBV markers relative to the no treatment control (cccDNA editing and/or viral replication) [9]: robust reduction in all HBV markers | cccDNA Editing in PHH A > G % ([3]; HBV-PHH system): 56.0%
